PubChem BioAssay (NCI)
Values joined by “and” are separate entries in the source; they are usually repeats but may differ in a detail not shown here. Identical values can stand only once.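 These data come from cells grown in 96-well plates and exposed to compound for 48 hours at five concentrations. Abbreviation: GI50, concentration required for 50% inhibition of growth. TGI marks complete inhibition of growth.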

Tests used:
Test in all cases: inhibition of tumour cell growth, NCI panel, 48 h
[1] = test system: LOX IMVI melanoma
[2] = test system: 786-0 renal
[3] = test system: MCF7 breast
[4] = test system: MDA-N
[5] = test system: SF-539 CNS
[6] = test system: HOP-62 NSCLC
[7] = test system: OVCAR-8 ovarian
[8] = test system: SK-MEL-2 melanoma
[9] = test system: MDA-MB-435
[10] = test system: RPMI-8226 leukemia
[11] = test system: K-562 leukemia

SMILES	TGI [1] [µM]	TGI [2] [µM]	TGI [3] [µM]	TGI [4] [µM]	TGI [5] [µM]	TGI [6] [µM]	TGI [7] [µM]	TGI [8] [µM]	TGI [9] [µM]	TGI [10]	TGI [11] [µM]	GI50 [1]	GI50 [5] [µM]	GI50 [10]	GI50 [8] [µM]	GI50 [9] [µM]	GI50 [3] [µM]	GI50 [6] [µM]	GI50 [7] [µM]	GI50 [11] [µM]
C=CCCCN(C(=O)c1ccccc1)c1ccc(C(=O)OC)o1	> 100	> 100	> 100	> 100	> 100	> 100	> 100	> 100	–	–	–	–	–	–	–	–	–	–	–	–
Cc1ccc(N=Nc2c(O)ccc3ccccc23)c(C)c1	> 100	> 100	–	> 100	–	> 100	> 100	> 100	> 100	> 100 µM	> 100	–	–	–	–	–	–	–	–	–
CN(C)Cc1cc(/C=C/C(=O)c2ccc(Br)cc2)cc(CN(C)C)c1O	–	29.9	50.5	32.6	29.1	> 100	> 100	90.5	36.8	26.5 µM	> 100	–	–	–	–	–	–	–	–	–
CC12CC(c3ccccc3O1)C(C(=O)Nc1nccs1)C(=O)N2 (centres undefined)	> 100	> 100	> 100	> 100	–	> 100	> 100	> 100	> 100	> 100 µM	> 100	–	–	–	–	–	–	–	–	–
CC(C)(C)N=C1C(=O)C2(C)CCC1C2(C)C (centres undefined)	> 100	> 100	> 100	–	> 100	> 100	> 100	> 100	> 100	> 100 µM	> 100	–	–	–	–	–	–	–	–	–
C[C@]12CC[C@H]3[C@@H](CC=C4C[C@@H](O)CC[C@@]43C)[C@@H]1C/C(=C\c1ccc([N+](=O)[O-])cc1)[C@@H]2O	> 100	22.8	19.6	–	34.5	27.7	36.9	52.9	> 100	> 100 µM	> 100	–	–	–	–	–	–	–	–	–
CCC1OC2(C)CC(C#N)(C#N)C1(C#N)C(=N)O2 (centres undefined)	> 100	> 100	> 100	> 100	> 100	–	–	> 100	> 100	–	> 100	–	–	–	–	–	–	–	–	–
COC1OC(C)/C(=N/O)C2OC(C)(C)OC12 (centres undefined)	> 100	> 100	> 100	–	> 100	> 100	> 100	–	> 100	> 100 µM	> 100	–	–	–	–	–	–	–	–	–
Cc1c2cc[n+](C)cc2c(C)c2c1[nH]c1ccc(OCC(F)(F)F)cc12	> 100	> 100	–	–	–	–	> 100	> 100	–	43 µM and > 88 µM	> 56.6	10.8 µM and 22.8 µM	1.73	4.27 µM and 23.7 µM	5.9	–	–	–	–	–
CCCCn1c(-c2ccccc2)cs/c1=N\NC(=O)Cn1c(C)nc2ccccc21	> 100	> 100	–	–	> 100	> 100	> 100	> 100	–	> 100 µM	> 100	–	–	–	–	–	–	–	–	–
Clc1cc(Cl)nc(Nc2ccc3c(c2)CCC3)n1	91.1	> 100	70.8	> 100	> 100	–	> 100	> 100	> 100	42 µM	46	–	–	–	–	–	–	–	–	–
COc1ccc(-c2c(/C=N/OCC(=O)O)c3sc4ccccc4n3c2/C=N/OCC(=O)O)cc1	> 50	> 50	> 50	> 50	–	> 50	> 50	> 50	> 50	–	> 50	–	–	–	–	–	–	–	–	–
CSCSCC(CO)NC(=O)/C=C\c1c(C)[nH]c(=O)[nH]c1=O (centres undefined)	107	–	29.2	–	192	246	89.9	136	–	239 µM	111	–	–	–	–	–	–	–	–	–
COc1ccc(-c2nc(-c3cnccn3)n(C/C=C/c3ccccc3)n2)cc1	> 100	46.5	> 100	> 100	> 100	60.3	> 100	–	> 100	> 100 µM	> 100	–	–	–	–	–	–	–	–	–
CCOC(=O)c1c(SC(=O)c2ccc(Cl)cc2)n(-c2ccccc2)c(=S)n(-c2ccccc2)c1=O	> 100	> 100	> 100	> 100	> 100	> 100	> 100	–	> 100	–	> 100	–	–	–	–	–	–	–	–	–
N/C(=N\N=C/c1c(O)cc(O)cc1O)NO	> 100	–	> 100	–	> 100	> 100	> 100	> 100	–	> 100 µM	> 100	–	–	–	–	–	–	–	–	–
c1ccc(C2N=C(c3ccccn3)C(c3ccccn3)=NC2c2ccccc2)cc1 (centres undefined)	> 100	> 100	–	–	> 100	> 100	> 100	> 100	–	> 100 µM	> 100	–	–	–	–	–	–	–	–	–
Oc1c(NCn2nc(CCCCCCCCc3nn(CNc4ccc5ccccc5c4O)c(=S)o3)oc2=S)ccc2ccccc12	–	> 100	> 100	48.5	–	> 100	–	> 100	43.2	> 100 µM	> 100	–	–	–	–	–	–	–	–	–
CC1(C)CC(=O)C2=C(C1)NC(=S)C(C#N)C2c1ccccc1 (centres undefined)	> 100	> 100	> 100	> 100	> 100	> 100	> 100	> 100	> 100	–	> 100	–	–	–	–	–	–	–	–	–
O=C(NCc1cn(Cc2cccc(Oc3ccccc3)c2)nn1)c1cccnc1NCc1ccc(Cl)cc1	> 100	–	> 100	–	5.17	> 100	> 100	> 100	7.37	> 100 µM	> 100	3.9 µM	2.24	3.12 µM	4.44	2.33	2.99	5.69	3.63	3.24
COc1c(NC(C)=O)c2ccccc2c2ccccc12	> 100	> 100	–	> 100	–	> 100	> 100	> 100	> 100	–	> 100	–	–	–	–	–	–	–	–	–
O=c1[nH]c(=S)[nH]c2c1CCCN2	> 100	> 100	–	–	–	> 100	> 100	> 100	–	> 100 µM	–	–	–	–	–	–	–	–	–	–
